From patent US20260364099A1, “GLYCYRRHIZIC ACID HYDROGELS” (KATHOLIEKE UNIVERSITEIT LEUVEN, priority 2023, published 2026)

Experiments:
Streptococcus = assay: Antibacterial effect (no effect, bacteriostatic, bactericidal); growth inhibition followed by biocidal plating; assay type: cell-based, Streptococcus pyogenes LMG 14237; details: bactericidal = 3 LOG reduction compared to the inoculum
Procedure: (§1) The below table summarises the antibacterial effect (no effect, bacteriostatic, bactericidal) of the glycyrrhizic acid hydrogels on different pathogens tested.
The bactericidal effect of 0.5 mL/mL of 5 wt % hydrogel A (shown in grey bars with circles) is compared to growth medium with an adjusted pH (pH 5.2) that is associated with the acidifying effect of hydrogel A (shown in white bars with squares). ns: p>0.05, ****p<0.0001. […]
(§2) Three different formulations of the glycyrrhizic acid hydrogels were made in dH2O: (i) Hydrogel C with pH=3, (ii) Hydrogel B with pH=3.8 and (iii) Hydrogel A with pH=4.2. pH was measured at 70 °C and varied using HCl or NaOH to acidify or alkalify the formulation to the desired pH-value. […]
(§3) To avoid evaporation, the plates were sealed using a membrane (Greiner Bio-one NV). After 24 hours of incubation (37 °C, 200 rpm), the OD595 was measured and relative OD595 was calculated by dividing the OD595 by the average OD595 of the growth control (=growth of cells in MHB without glycyrrhizic acid). […]

Enterococcus = assay: as above; assay type: cell-based, Enterococcus faecalis LMG8148; details: bactericidal = 3 LOG reduction compared to the inoculum
Procedure: as §1
The bactericidal effect of 0.5 mL/mL of 10 wt % hydrogel C (shown in grey bars with circles) is compared to growth medium with an adjusted pH (pH 4.6) that is associated with the acidifying effect of hydrogel C (shown in white bars with squares). ****p<0.0001. […]
as §2, §3

MRSA = assay: Growth inhibition evaluation (relative OD595); assay type: cell-based, methicillin resistant S. aureus (MRSA), clinical isolate; details: 25 mg/mL glycyrrhizic acid in solution or 0.5 mL/mL of 5 wt % hydrogel, 24 h, 37 °C
Procedure: (§4) The growth inhibiting effect of 25 mg/mL glycyrrhizic acid in solution and 0.5 mL/mL of 5 wt % hydrogel A, corresponding with a total of 25 mg/mL of glycyrrhizic acid in the system are shown in grey bars with circles. Both are compared to suitable controls (shown in white bars with squares) i.e. growth media with an adjusted pH that is associated with the acidifying effect of glycyrrhizic acid in solution (pH 7.4) and hydrogel A (pH 5.2) but without the presence of glycyrrhizic acid in solution or hydrogel A, respectively. ns: p>0.05, *p<0.05, **p<0.01, ****p<0.0001. […]
as §2
(§5) To avoid evaporation, the plates were sealed using a membrane (Greiner Bio-one NV). After 24 hours of incubation (37 °C, 200 rpm), the OD595 was measured and relative OD595 was calculated by dividing the OD595 by the average OD595 of the growth control (=growth of cells in MHB without glycyrrhizic acid).

[1] = system: Staphylococcus epidermidis; assay: Growth inhibition evaluation (relative OD595); assay type: cell-based, clinical isolate; details: 25 mg/mL glycyrrhizic acid in solution or 0.5 mL/mL of 5 wt % hydrogel, 24 h, 37 °C
Procedure: as §4, §2, §5

Acinetobacter baumanni = assay: Growth inhibition evaluation (relative OD595); assay type: cell-based, Acinetobacter baumannii RD5SR3; details: 25 mg/mL glycyrrhizic acid in solution or 0.5 mL/mL of 5 wt % hydrogel, 24 h, 37 °C
Procedure: as §4, §2, §5

Pseudomonas aeruginosa = assay: Growth inhibition evaluation (relative OD595); assay type: cell-based, Pseudomonas aeruginosa LMG9009; details: 25 mg/mL glycyrrhizic acid in solution or 0.5 mL/mL of 5 wt % hydrogel, 24 h, 37 °C
Procedure: as §4, with “B,” for “A,”, “B” for “A”, “5)” for “5.2)”, “p>0.05,” for “p>0.05, *p<0.05, **p<0.01,”
as §2, §5

Escherichia coli [2] = assay: Growth inhibition evaluation (relative OD595); assay type: cell-based, Escherichia coli UTI89; details: 50 mg/mL glycyrrhizic acid in solution or 0.5 mL/mL of 10 wt % hydrogel, 24 h, 37 °C
Procedure: as §4, with “of 50” for “of 25”, “of 10” for “of 5”, “hydrogel C,” for “hydrogel A,”, “hydrogel C” for “hydrogel A”, “(pH 4.6)” for “(pH 5.2)”, “p>0.05,” for “p>0.05, *p<0.05, **p<0.01,”
as §2, §5

Klebsiella pneumoniae = assay: Growth inhibition evaluation (relative OD595); assay type: cell-based, Klebsiella pneumoniae ATCC13883; details: 50 mg/mL glycyrrhizic acid in solution or 0.5 mL/mL of 10 wt % hydrogel, 24 h, 37 °C
Procedure: as §4, with “of 50” for “of 25”, “of 10” for “of 5”, “hydrogel C,” for “hydrogel A,”, “hydrogel C” for “hydrogel A”, “(pH 4.6)” for “(pH 5.2)”, “p>0.05,” for “p>0.05, *p<0.05, **p<0.01,”
as §2, §5

Klebsiella aerogenes = assay: Growth inhibition evaluation (relative OD595); assay type: cell-based, Klebsiella aerogenes ATCC13048; details: 50 mg/mL glycyrrhizic acid in solution or 0.5 mL/mL of 10 wt % hydrogel, 24 h, 37 °C
Procedure: as §4, with “of 50” for “of 25”, “of 10” for “of 5”, “hydrogel C,” for “hydrogel A,”, “hydrogel C” for “hydrogel A”, “(pH 4.6)” for “(pH 5.2)”, “p>0.05,” for “p>0.05, *p<0.05, **p<0.01,”
as §2, §5

S. pyogenes = assay: Growth inhibition evaluation (relative OD595); assay type: cell-based, Streptococcus pyogenes LMG 14237
Procedure: The glycyrrhizic acid concentration is calculated based on the percentage of glycyrrhizic acid in the gel and the amount of this gel used in the assay. Note that the pH at the gel surface is lower than the initial pH of the growth medium on top of the gel due to the acidifying effect of the hydrogel. This pH difference is dependent of the pH of the hydrogel, the percentage of glycyrrhizic acid in the hydrogel and the amount of hydrogel used. The different hydrogels are indicated by color: white circles represent the hydrogel A, grey circles represent hydrogel B and black circles represent the hydrogel C. The 2 grey dots at pH 7.0 in the plot represent the (lack of) activity of glycyrrhizic acid in solution. Of all nine pathogens tested, only Streptococcus pyogenes was inhibited by 50 mg/mL glycyrrhizic acid in solution.
The growth inhibiting effect of 25 mg/mL glycyrrhizic acid in solution and 0.5 mL/mL of 5 wt % hydrogel A, corresponding with a total of 25 mg/mL of glycyrrhizic acid in the system are shown in grey bars with circles. […]
as §2

E. faecalis = assay: Growth inhibition evaluation (relative OD595); assay type: cell-based, Enterococcus faecalis LMG8148; details: 25 mg/mL glycyrrhizic acid in solution or 0.5 mL/mL of 5 wt % hydrogel, 24 h, 37 °C
Procedure: as §4, §2, §5

Escherichia coli [3] = details: cited from earlier work
Proteus vulgaris = details: cited from earlier work
Candida albicans = details: cited from earlier work
Streptococci = details: cited from earlier work

With `CC1(C)[C@@H](O[C@H]2O[C@H](C(=O)O)[C@@H](O)[C@H](O)[C@H]2O[C@@H]2O[C@H](C(=O)O)[C@@H](O)[C@H](O)[C@H]2O)CC[C@]2(C)[C@H]3C(=O)C=C4[C@@H]5C[C@@](C)(C(=O)O)CC[C@]5(C)CC[C@@]4(C)[C@]3(C)CC[C@@H]12` [glycyrrhizic acid] the “antibacterial effect (no effect, bacteriostatic, bactericidal)” value (Streptococcus) was “Bacterio-”, the “antibacterial effect (no effect, bacteriostatic, bactericidal)” value (Enterococcus) was “No effect” and the growth inhibiting activity (MRSA) was “lack of/limited growth inhibiting activity”. The growth inhibiting activity [1] was “lack of/limited growth inhibiting activity”, the growth inhibiting activity (Acinetobacter baumanni) was “lack of/limited growth inhibiting activity” and the growth inhibiting activity (Pseudomonas aeruginosa) was “lack of/limited growth inhibiting activity”. For the same molecule, the growth inhibiting activity (Escherichia coli [2]) was “lack of/limited growth inhibiting activity”, the growth inhibiting activity (Klebsiella pneumoniae) was “lack of/limited growth inhibiting activity” and the growth inhibiting activity (Klebsiella aerogenes) was “lack of/limited growth inhibiting activity”. The “complete growth inhibition (FIG. 1)” value (S. pyogenes; 50 mg/mL glycyrrhizic acid in solution, only Streptococcus pyogenes of nine pathogens) was “inhibited”, the growth inhibiting activity (S. pyogenes; S. pyogenes, 25 mg/mL glycyrrhizic acid in solution or 0.5 mL/mL of 5 wt % hydrogel, 24 h, 37 °C) was “lack of/limited growth inhibiting activity” and the growth inhibiting activity (E. faecalis) was “lack of/limited growth inhibiting activity”. For the same molecule, the “antibacterial potential in solution” value (Escherichia coli [3]) was “lack of activity”, the “antibacterial potential in solution” value (Proteus vulgaris) was “lack of activity” and the “antibacterial potential in solution” value (Candida albicans) was “lack of activity”. For the same molecule, the “antibacterial potential in solution” value (Streptococci) was “lack of activity”.
